# Source: article PMC7377239, “Cardiovascular Effects of Polychlorinated Biphenyls and Their Major Metabolites” (Environmental Health Perspectives, 2020)
# Where two headings read alike, the source gives them in different places.
# What was measured:
# [1] = system: iCell cardiomyocytes (human iPSC-derived cardiomyocytes); experiment: High-content imaging of cytotoxicity and mitochondrial integrity in iPSC-CMs; type: cell-based; settings: Homo sapiens, Cardiomyocyte, cardiomyocytes (cm)
# Outline: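 Readouts from high-content images were normalized to vehicle controls containing 0.5% vol/vol DMSO. They were fit to a four-parameter logistic model in R. Points of departure were set using a cutoff of one standard deviation across vehicle control means. Where no concentration–response was seen, the top tested concentration of 100μM was assigned as the no observable adverse effect level.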
# [2] = system: HUVECs; experiment: High-content imaging cytotoxicity in HUVECs, 24 h; type: cell-based, human; settings: Homo sapiens, HUVEC, 24 h, HUVEC, 24 hr
# Outline: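 Point-of-departure values derive from four-parameter logistic fits of vehicle-normalized imaging phenotypes (Hoechst 33342, MitoTracker Orange, calcein AM). The fits follow 24 h exposure of HUVEC monolayers at 37°C and 5% CO2, with a top tested concentration of 100μM.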
smiles,measurement,setting,value
"Oc1ccc(O)c(-c2ccc(Cl)cc2)c1 [2',5'-diOH-PCB 3, 4-Chloro-2′,5′-dihydroxybiphenyl]",minimal effective concentration,"[1]; 1.5 h, cam, 90 min, read-out: POD cm.cam.90min",32.4 µM
same,minimal effective concentration,"[1]; 1.5 h, mii, 90 min, read-out: POD cm.mii.90min",7.9 µM
same,minimal effective concentration,"[1]; 1.5 h, mito, 90 min, read-out: POD cm.mito.90min",12.7 µM
same,minimal effective concentration,"[1]; 1.5 h, tc, 90 min, read-out: POD cm.tc.90min",33.4 µM
same,minimal effective concentration,"[1]; 24 h, cam, 24 hrs, read-out: POD cm.cam.24hrs",1.84 µM
same,minimal effective concentration,"[1]; 24 h, mii, 24 hrs, read-out: POD cm.mii.24hrs",2.28 µM
same,minimal effective concentration,"[1]; 24 h, mito, 24 hrs, read-out: POD cm.mito.24hrs",0.97 µM
same,minimal effective concentration,"[1]; 24 h, tc, 24 hrs, read-out: POD cm.tc.24hrs",1.88 µM
same,minimal effective concentration,"[2]; cyto, read-out: POD huvec.cyto.24hr",0.12 µM
same,minimal effective concentration,"[2]; mito, read-out: POD huvec.mito.24hr",0.13 µM
same,minimal effective concentration,"[2]; mitoint, read-out: POD huvec.mitoint.24hr",3.51 µM
same,minimal effective concentration,"[2]; nma, read-out: POD huvec.nma.24hr",8.87 µM
same,minimal effective concentration,"[2]; tc, read-out: POD huvec.tc.24hr",0.12 µM
